Experiments:
[1] = molecular target: JAK3 (a.a. 781-1124) (Homo sapiens (Human), UniProt P52333); assay: JAK3 enzyme activity assay (SRCtide phosphorylation, Caliper); assay type: biochemical; conditions: 1 uM ATP; read-out: JAK3 Inhibition IC50
[2] = system: IL-2 stimulated STAT5 phosphorylation on Tyr694 (JAK1/3); assay: JAK1/3 cellular target modulation: IL-2 stimulated phospho-STAT5 in PBMC; assay type: cell-based; conditions: human PBMC, IL-2 25 ng/ml; read-out: IL2-STAT5 IC50
How it was run: (§1)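 Thawed human PBMC (200,000/well, RPMI/10% FBS) were preincubated with compound for 1 h at 37 °C, added from 10× stocks in 1% DMSO. Stimulation and read-out: IL-2 25 ng/ml, 5 min, pSTAT5 by MSD; IL-12 1.7 ng/ml, 25 min, pSTAT4 by MSD; IFNγ 10 ng/ml, 10 min, pSTAT1 by sandwich ELISA.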

[3] = system: IL-12 stimulated STAT4 phosphorylation on Tyr693 (JAK2/TYK2); assay: JAK2/TYK2 cellular target modulation: IL-12 stimulated phospho-STAT4 in PBMC; assay type: cell-based; conditions: human PBMC, IL-12 1.7 ng/ml; read-out: IL12-STAT4 IC50
How it was run: as §1

[4] = GI Exposure PK in Mice; assay type: in vivo; conditions: mouse, male BalbC mice, oral dose of 5 mg/kg
Method: The test compound was wetted with ˜0.025% of Tween-20 and triturated in a mortar and pestle, then slowly 0.5% of methyl cellulose was added to make up the final volume to 7.25 mL. The BalbC test animals were subjected to anesthesia induced with a mixture of 5% isoflurane and 0.8-1.5 L/min 02 gas flow. The formulated test compound was then dosed via oral gavage. At various time points (0.5, 1, 2, 4, 6 and 8 h) blood samples (˜100 μL) were collected from portal vein (pre-hepatic) followed by cardiac puncture (circulating) into tubes containing 2% w/v aqueous K2 EDTA solution as per time points. Post blood sampling, the gastro intestine (GI) tissues were collected from the mice at the same time points. The GI tissue was dissected into different parts as duodenum, jejunum, ileum and colon. The separated tissues were washed by flushing with PBS via oral gavage needle to remove GI content. Post collection all the tissues were blotted, weighed and homogenized with PBS buffer (pH 7.4). The blood samples were immediately placed on ice and centrifuged within 30 min at 4° C. for 5 min at 8,000 rpm to obtain plasma. Plasma was transferred by pipettes to pre-labelled centrifuge tubes and immediately transferred to −80° C. until bioanalysis. Tissue samples were placed in pre-labelled container and all samples were kept in −80° C. until homogenized. The homogenate was stored immediately in −80° C. until bioanalysis was conducted. Study samples were thawed to room temperature and 50 μL of sample was aliquoted into pre-labeled vials. To these was added 400 μL of 100% acetonitrile containing an IS (100 ng/mL; warfarin, tolbutamide and loperamide). The vials were mixed well, vortexed for 5 min, followed by centrifugation for 5 min at 14000 rpm at 4° C. The supernatant was separated and same was injected on LC-MS/MS. Plasma and GI tissue levels of test compound were determined by LC-MS analysis using a standard curve in the text matrix. Individual concentration-time data were analyzed using Phoenix WinNonlin (Version 8.1) by the non-compartmental analysis (NCA) method.

[5] = portal vein plasma (pre-hepatic), Portal plasma

Sequence of JAK3 (a.a. 781-1124) (P52333 781-1124): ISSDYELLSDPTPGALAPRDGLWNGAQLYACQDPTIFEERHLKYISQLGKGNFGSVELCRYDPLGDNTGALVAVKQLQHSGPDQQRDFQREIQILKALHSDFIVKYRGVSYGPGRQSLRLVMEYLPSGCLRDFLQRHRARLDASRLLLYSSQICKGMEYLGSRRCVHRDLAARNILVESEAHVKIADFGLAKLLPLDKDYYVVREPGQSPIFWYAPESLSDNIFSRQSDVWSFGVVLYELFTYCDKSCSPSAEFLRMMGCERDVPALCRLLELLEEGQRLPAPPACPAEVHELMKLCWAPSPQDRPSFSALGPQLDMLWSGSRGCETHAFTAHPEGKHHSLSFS

IC50 [1]: ≤ 10 nM | IC50 [2]: ≤ 100 nM | IC50 [3]: > 1000 nM | Tmax ([4]; circulating plasma (cardiac puncture), Circulating plasma): 4 h | Cmax ([4]; circulating plasma (cardiac puncture), Circulating plasma, two of three subjects, third BLQ): 9.2 ng/mL | AUC [4, 5]: 17.2 ng·h/mL | Cmax [4, 5]: 11.3 ng/mL | Tmax [4, 5]: 0.5 h | AUC ([4]; Colon): 6820 ng·h/mL | Cmax ([4]; Colon): 1290 ng/g | Tmax ([4]; Colon): 4 h | AUC ([4]; Duodenum): 4660 ng·h/mL | Cmax ([4]; Duodenum): 2880 ng/g | Tmax ([4]; Duodenum): 0.5 h | AUC ([4]; Ileum): 82500 ng·h/mL | Cmax ([4]; Ileum): 43800 ng/g | Tmax ([4]; Ileum): 2 h | AUC ([4]; Jejunum): 57400 ng·h/mL | Cmax ([4]; Jejunum): 37000 ng/g | Tmax ([4]; Jejunum): 0.5 h
SMILES: CNC(=O)c1coc(-c2cnc3[nH]ccc3c2N[C@@H]2C[C@H](C)CN(C(=O)CC#N)C2)n1 [Example 31, 2-(4-(((3R,5S)-1-(2-cyanoacetyl)-5-methylpiperidin-3-yl)amino)-1H-pyrrolo[2,3-b]pyridin-5-yl)-N-methyloxazole-4-carboxamide]

— patent publication US11420966B2 (ACLARIS THERAPEUTICS, INC., priority 2019, dated 2022)
